From patent publication US20260206762A1, “PYRIMIDINONE DERIVATIVES AS PESTICIDAL COMPOUNDS” (BASF SE, priority 2022, published 2026)

Tests used:
[1] = tested on: diamond back moth (Plutella xylostella); assay: Diamond back moth (Plutella xylostella) cabbage leaf disc dip test; assay type: in vivo; conditions: for Test according to B.4 (Plutella xylostella) @ 10 ppm: comparison data; for mortality at 800 ppm: Plutella xylostella, foliar, 3rd instar larvae, 72 hours after treatment, read-out: mortality in comparison with untreated controls
Experimental: B.4 Diamond Back Moth (Plutella xylostella)
The active compound is dissolved at the desired concentration in a mixture of 1:1 (vol:vol) distilled water: acetone. Surfactant (Kinetic) is added at a rate of 0.01% (vol/vol). The test solution is prepared at the day of use. Cabbage leaf discs (60 mm in diameter) are dipped in test solution and air-dried. Treated leaves are placed in petri dishes lined with moistened filter paper and inoculated with ten 3rd instar larvae. Mortality is recorded 72 hours after treatment. Feeding damage is also recorded using a scale of 0-100%.

[2] = tested on: tobacco budworm (Heliothis virescens); assay: Tobacco budworm (Heliothis virescens) microtiter diet test, egg and larval mortality; assay type: in vivo; conditions: 120 h, egg and larval mortality after 5 days, read-out: mortality in comparison with untreated controls
Experimental: B.2 Tobacco Budworm (Heliothis virescens)
(§1) For evaluating control of tobacco budworm (Heliothis virescens) the test unit consisted of 96-well-microtiter plates containing an insect diet and 15-25 H. virescens eggs. The compounds were formulated using a solution containing 75% v/v water and 25% v/v DMSO. Different concentrations of formulated compounds were sprayed onto the insect diet at 10 μl, using a custom-built micro atomizer, at two replications. After application, microtiter plates were incubated at about 28±1° C. and about 80±5% relative humidity for 5 days. Egg and larval mortality was then visually assessed.

[3] = tested on: green peach aphid (Myzus persicae); assay: Green peach aphid (Myzus persicae) systemic artificial diet test; assay type: in vivo; conditions: 72 h, aphid mortality after 3 days, read-out: mortality in comparison with untreated controls
Excerpt: B.3 Green Peach Aphid (Myzus persicae)
For evaluating control of green peach aphid (Myzus persicae) through systemic means the test unit consisted of 96-well-microtiter plates containing liquid artificial diet under an artificial membrane. The compounds were formulated using a solution containing 75% v/v water and 25% v/v DMSO. Different concentrations of formulated compounds were pipetted into the aphid diet, using a custom built pipetter, at two replications. After application, 5-8 adult aphids were placed on the artificial membrane inside the microtiter plate wells. The aphids were then allowed to suck on the treated aphid diet and incubated at about 23±1° C. and about 50±5% relative humidity for 3 days. Aphid mortality and fecundity was then visually assessed.

[4] = tested on: southern armyworm (Spodoptera eridania), 2nd instar larvae; assay: whole plant or invertebrate; conditions: in Phaseolus lunatus, foliar, 96 h, read-out: mortality in comparison with untreated controls
Experimental: B.5 Southern Armyworm (Spodoptera eridania), 2nd Instar Larvae
The 10,000 ppm solution was serially diluted in 100% cyclohexanone to make interim solutions. These served as stock solutions for which final dilutions were made by the Tecan in 50% acetone:50% water (v/v) into 10 or 20 ml glass vials. A nonionic surfactant (Kinetic®) was included in the solution at a volume of 0.01% (v/v). The vials were then inserted into an automated electrostatic sprayer equipped with an atomizing nozzle for application to plants/insects. Lima bean plants (variety Sieva) were grown 2 plants to a pot and selected for treatment at the 1st true leaf stage. Test solutions were sprayed onto the foliage by an automated electrostatic plant sprayer equipped with an atomizing spray nozzle. The plants were dried in the sprayer fume hood and then removed from the sprayer. Each pot was placed into perforated plastic bags with a zip closure. Ten to 11 armyworm larvae were placed into the bag and the bags zipped closed. Test plants were maintained in a growth room at about 25° C. and about 20-40% relative humidity for 4 days, avoiding direct exposure to fluorescent light (14:10 light:dark photoperiod) to prevent trapping of heat inside the bags. Mortality and reduced feeding were assessed 4 days after treatment, compared to untreated control plants.

[5] = tested on: boll weevil (Anthonomus grandis); assay: Boll weevil (Anthonomus grandis) microtiter diet test, egg and larval mortality; assay type: in vivo; conditions: 120 h, egg and larval mortality after 5 days, read-out: mortality in comparison with untreated controls
Experimental: B.1 Boll Weevil (Anthonomus grandis)
as §1, with “boll weevil (Anthonomus grandis)” for “tobacco budworm (Heliothis virescens)”, “5-10 A. grandis” for “15-25 H. virescens”, “5” for “10”, “25±1°” for “28±1°”, “75±5%” for “80±5%”

| SMILES | Test according to B.4 (Plutella xylostella) @ 10 ppm [1] | mortality at 800 ppm [2] | mortality at 800 ppm [3] | mortality at 300 ppm [4] | mortality at 800 ppm [1] | mortality at 800 ppm [5] |
| --- | --- | --- | --- | --- | --- | --- |
| CCS(=O)(=O)c1cc(C(C)(C)C#N)cnc1-c1cn2c(=O)n(C3CC3)c(C(F)(F)F)cc2n1 [Compound C.4, reference compound] | 25% |  |  |  |  |  |
| CCS(=O)(=O)c1cc(-c2ccc(F)cc2)cnc1-c1cn2c(=O)n(C3CC3)c(Cl)cc2n1 [I.1, 7-chloro-6-cyclopropyl-2-[3-ethylsulfonyl-5-(4-fluorophenyl)-2-pyridyl]imidazo[1,2-c]pyrimidin-5-one] |  | > 75% | > 75% | > 75% | > 75% | > 75% |
| CCS(=O)(=O)c1cc(C(C)(C)C#N)cnc1-c1cn2c(=O)n(C3CC3)c(Cl)cc2n1 [I.3] | 100% |  | > 75% | > 75% | > 75% | > 75% |
| CCS(=O)(=O)c1cc(-c2ccc(F)cc2)cnc1-c1cn2c(=O)n(C3CC3)c(Br)cc2n1 [I.4, 7-bromo-6-cyclopropyl-2-[3-ethylsulfonyl-5-(4-fluorophenyl)-2-pyridyl]imidazo[1,2-c]pyrimidin-5-one] |  | > 75% | > 75% | > 75% | > 75% | > 75% |
| CCS(=O)(=O)c1cc(-c2ccc(F)cc2)c(C)nc1-c1cn2c(=O)n(C3CC3)c(Cl)cc2n1 [I.5, 7-chloro-6-cyclopropyl-2-[3-ethylsulfonyl-5-(4-fluorophenyl)-6-methyl-2-pyridyl]imidazo[1,2-c]pyrimidin-5-one] |  | > 75% | > 75% | > 75% | > 75% | > 75% |
